Assay results reported in patent publication US20050256208A1, “Pharmaceutical composition containing bakuchiol for treating woman breast cancer” (Sinphar Pharmaceutical Co., Ltd., priority 2004, published 2005).
Converted amounts (≈) assume the structure as drawn.

Tests used:
[1] = test system: human breast cancer cell line T47D (estrogen receptor positive); assay: In vitro cytotoxicity assay (CCK-8), T47D; format: cell-based; conditions: T47D cells, 48 hours incubation, read-out: 50% inhibition of cell growth concentration (IC50)
From the text: (§1) Materials: DMEM (medium), RPMI (medium), L-glutamine, penicillin, streptomycin and FBS (fetal bovine serum) were obtained from Gibco (NY, USA). Culture plasticware was purchased from Corning (MA, USA). […] All other chemicals used were of reagent grade and were purchased from Sigma or E. Merck (Germany).
(§2) Cell lines and cell cultures: The human breast cancer cell lines T47D and MDA-MB231 were obtained from American Type Culture Collection (ATCC). Of both cancer cells, T47D is estrogen receptor positive, and MDA-MB231 is estrogen receptor negative. Cells were cultured at 37° C. in RPMI medium containing 10% charcoal-dextran stripped fetal bovine serum for T47D cells and in DMEM medium containing 10% charcoal-dextran stripped fetal bovine serum for MDA-MB231 cells with 5% CO2. The cell proliferation was determined by counting the viable cells with trypan blue exclusion.
(§3) Cytotoxicity assay: Dispense 198 μl of cell suspension (20,000 cells for T47D per well and 10,000 cell for MDA-MB231 per well) in a 96-well plate and pre-incubate the plate for 24 hours in an incubator at 37° C. with humidified 5% CO2. […] After plate was incubated for 48 hours in the incubator, media were aspirated of and new media (100 μl) were added and incubated for 1 more hour. […] Measure the absorbance at 450 nm using a ELISA reader.

[2] = test system: human breast cancer cell line MDA-MB231 (estrogen receptor negative); assay: In vitro cytotoxicity assay (CCK-8), MDA-MB231; format: cell-based; conditions: MDA-MB-231, MDA-MB231 cells, 48 hours incubation, read-out: 50% inhibition of cell growth concentration (IC50)
From the text: as §1, §2, §3

[3] = test system: ovariectomized female Wistar rats (osteoporosis caused by estrogen deficiency); assay: Ovariectomized rat osteoporosis model, bone histomorphometry of proximal tibia; format: in vivo; conditions: two months, mean value; for Erosion surface (ES/BS, %) of proximal tibia: OVX group 5.8%, Sham 4.7%; for Bone volume % (BV/TV) of proximal tibia head trabecular bone: OVX group 12.50%, Sham 29.50%
From the text: The purpose of this example is to show the potency of bakuchiol in treating osteoporosis, wherein ovary of a female rat is removed to stimulate osteoporosis caused by estrogen deficiency. The female Wistar rats of 16 weeks old (unless specified in the other experiment description) were obtained from the stock reared by the Animal breeding center, National Scientific Council in Taipei. These rats were grouped by weights matched in order to distribute the physiological response variation from rats evenly into each group. These rats were grouping as follows: • Baseline group fed with no drug added food (n=8) • Sham operation group fed with no drug added food (Sham) (n=10) • Ovariectomy operation group fed with no drug added food (OVX) (n=8) • Ovariectomy operation group fed with Drug A (5 mg/kg) added food (OVX+A) (n=9) • Ovariectomy operation group fed with Drug B (15 mg/kg) added food (OVX+B) (n=9) Ovariectomy (removal of ovaries) operation: Ovariectomy was induced using a protocol similar to that described by Wronski et al (Wronski et al, Endocrinology, 123(2), 681-86 (1988)). During the experiments, the rats were housed in hanging grid cages in groups of two at 21° C. with a 12 hours dark cycle. Food (Rat-mouse diet III, adequate in 1% of calcium content and 1.2% of phosphate content, Purina, USA) was administered by paired feeding between the experimental and control groups. Pair-feeding was carried out by calculating the average amount of food intake in the Sham group. So give the same amount of food to the OVX, OVX+A (5 mg/kg), OVX+B (15 mg/kg) group animals the following day. These animals were fed with a period of two months except for the baseline group which were killed on the very day of doing ovariectomy or sham operation. Rats of OVX+A and OVX+B groups were fed with the usual food chuck but added certain amount of compound A and B in it respectively. Water was given ad libitum to all rats. The test drug was weighted according to dose of 5 mg/kg and 15 mg/kg, and added into the ususal food chuck powder and mixed with 10% starch paste. After fully mixed, these chuck powder were made into mass manually and dried by air flow oven. The food with added drug to rats was performed by single blind method. These labeling and bone histomorphometry assessment were done based on standard procedure in bone research (Lin et al, Calcif. Tissue Int., 67, 373-377 (2000)). Specimen were prestained with Villanueva bone stain, then […] and embedded in London resin. Undecalcified sections of 7 μm thick were cut using Jung-K microtome (Leica Ltd, USA) and treated with Villanueva stain for observation under light microscopy. Seven μm thick unstained sections were prepared for fluorescent microscopy and assessed with program Osteomeasure (3.0 version, Atlanta, USA). […]

[4] = test system: ovariectomized female Wistar rats (osteoporosis caused by estrogen deficiency); assay: Ovariectomized rat osteoporosis model, apparent bone density of tibia; format: in vivo; conditions: two months, mean value, OVX group 1.549, Sham 1.589
From the text: The purpose of this example is to show the potency of bakuchiol in treating osteoporosis, wherein ovary of a female rat is removed to stimulate osteoporosis caused by estrogen deficiency.
The female Wistar rats of 16 weeks old (unless specified in the other experiment description) were obtained from the stock reared by the Animal breeding center, National Scientific Council in Taipei. These rats were grouped by weights matched in order to distribute the physiological response variation from rats evenly into each group. These rats were grouping as follows: • Baseline group fed with no drug added food (n=8) • Sham operation group fed with no drug added food (Sham) (n=10) • Ovariectomy operation group fed with no drug added food (OVX) (n=8) • Ovariectomy operation group fed with Drug A (5 mg/kg) added food (OVX+A) (n=9) • Ovariectomy operation group fed with Drug B (15 mg/kg) added food (OVX+B) (n=9)
Ovariectomy (removal of ovaries) operation: Ovariectomy was induced using a protocol similar to that described by Wronski et al (Wronski et al, Endocrinology, 123(2), 681-86 (1988)). […]
The whole tibia and femur were stripped off attached muscles and ligaments after sacrifice. […] The weight of bone measured in the air was marked as W-air. […] The apparent bone density was calculated as [W-air/(W-air minus W-water)] […]

[5] = test system: five different human cancer cells: lung (A549), ovary (SK-OV-3), skin (SK-MEL-2), central nervous system (XF498), large intestine (HCT); conditions: five human cancer cells A549, SK-OV-3, SK-MEL-2, XF498, HCT; Arch. Pharm. Res. 15, 356-359 (1992); cited from earlier work
[6] = OVX + B group, 15 mg/kg in food

For `C=C[C@@](C)(/C=C/c1ccc(O)cc1)CCC=C(C)C` [Bakuchiol, bakuchiol], the IC50 [1] was 5 µg/mL (≈ 19.5 µM), the IC50 [2] was 0.62 µg/mL (≈ 2.42 µM) and the “Erosion surface (ES/BS, %) of proximal tibia” value ([3]; OVX + A group, 5 mg/kg in food) was 5.0%. For the same compound, the “Bone volume % (BV/TV) of proximal tibia head trabecular bone” value ([3]; OVX + A group, 5 mg/kg in food) was 19.80%, the “Erosion surface (ES/BS, %) of proximal tibia” value [3, 6] was 4.8% and the “Bone volume % (BV/TV) of proximal tibia head trabecular bone” value [3, 6] was 20.11%. For the same compound, the “Bone apparent density of tibia” value ([4]; OVX + A group, 5 mg/kg in food) was 1.582 gm/cm^3, the “Bone apparent density of tibia” value [4, 6] was 1.587 gm/cm^3 and the “average inhibitory concentration (IC50)” value [5] was 10˜15 μg/cc.
